Reference: US10669271B2, “Heterocyclic compounds as immunomodulators” (Incyte Corporation, priority 2018, dated 2020)

Assays:
PD-L1 = PD-L1 (Homo sapiens (Human), UniProt Q9NZQ7); assay: PD-L1 whole blood internalization assay; type: cell-based; details: 1 ng/ml human interferon γ, PD-L1 expression on CD14+ cells, read-out: Whole Blood (24 HR) IC50
Method: Example D. PD-L1 Whole Blood Internalization Assay
To determine PD-L1 internalization in human whole blood, normal human blood (Biological Specialty Corp, Colmar. Pa.) was incubated in the presence or absence of a concentration range of test compounds and 1 ng/ml human interferon γ (R&D Systems Inc. Minn. […] Blood was then stained with PD-L1 (MIH1, eBioscience; or BD Biosciences San Jose, Calif.), CD14 (Life Technologies, Carlsbad, Calif.) for 30 minutes in the dark at room temperature. Whole Blood/red cells were lysed/fixed (lysis buffer BD Biosciences) for 5 minutes at 37° C. in the dark and then centrifuged at 1600 RPM for 5 minutes. Cells were resuspended in Stain Buffer (BD Bioscience, San Jose, Calif.) and transferred into 96 well round bottom plates (Corning). Cells were gated on CD14+(BD Biosciences) and PD-L1 expression determined by mean fluorescence intensity (MFI) (BD LSRFortessa™ X-20). IC50 determination was performed by fitting the curve of compound percent inhibition versus the log of the compound concentration using the GraphPad Prism 7.0 software.

PD-1/PD-L1 = PD-1/PD-L1 (Homo sapiens (Human), UniProt Q9NZQ7); assay: Homogeneous Time-Resolved Fluorescence (HTRF) PD-1/PD-L1 binding assay; details: recombinant human PD-1 and PD-L1, 25° C., pH 7.4
PD-1/PD-L1, sequence (Q9NZQ7 19-238): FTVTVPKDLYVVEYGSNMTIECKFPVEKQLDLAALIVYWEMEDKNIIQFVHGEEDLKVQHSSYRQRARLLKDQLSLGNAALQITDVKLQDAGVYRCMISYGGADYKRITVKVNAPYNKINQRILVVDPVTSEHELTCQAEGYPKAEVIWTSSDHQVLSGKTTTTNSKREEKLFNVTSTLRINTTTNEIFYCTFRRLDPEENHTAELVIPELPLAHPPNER
Method: Example A. Homogeneous Time-Resolved Fluorescence (HTRF) PD-1/PD-L1 Binding Assay
The assays were conducted in a standard black 384-well polystyrene plate with a final volume of 20 μL. Inhibitors were first serially diluted in DMSO and then added to the plate wells before the addition of other reaction components. The final concentration of DMSO in the assay was 1%. The assays were carried out at 25° C. in the PBS buffer (pH 7.4) with 0.05% Tween-20 and 0.1% BSA. Recombinant human PD-L1 protein (19-238) with a His-tag at the C-terminus was purchased from AcroBiosystems (PD1-H5229). Recombinant human PD-1 protein (25-167) with Fc tag at the C-terminus was also purchased from AcroBiosystems (PD1-H5257). PD-L1 and PD-1 proteins were diluted in the assay buffer and 10 μL was added to the plate well. Plates were centrifuged and proteins were preincubated with inhibitors for 40 minutes. The incubation was followed by the addition of 10 μL of HTRF detection buffer supplemented with Europium cryptate-labeled anti-human IgG (PerkinElmer-AD0212) specific for Fc and anti-His antibody conjugated to SureLight®-Allophycocyanin (APC, PerkinElmer-AD0059H). After centrifugation, the plate was incubated at 25° C. for 60 min. before reading on a PHERAstar FS plate reader (665 nm/620 nm ratio). Final concentrations in the assay were—3 nM PD1,10 nM PD-L1, 1 nM europium anti-human IgG and 20 nM anti-His-Allophycocyanin. IC50 determination was performed by fitting the curve of percent control activity versus the log of the inhibitor concentration using the GraphPad Prism 5.0 software.

[1] = system: PD-L1 aAPC/CHO-K1 cells and Jurkat-PD-1-NFAT effector cells; assay: Nuclear factor of activated T-cells (NFAT) assay; type: cell-based; details: Cricetulus griseus; PD-L1 aAPC/CHO-K1 cells with Jurkat-PD-1-NFAT effector cells, 24 hours
Method: Example C. Nuclear Factor of Activated T-Cells (NFAT) Assay
PD-L1 aAPC/CHO-Klcells (Promega) were maintained in F-12 medium with addition of 10% FBS, 200 μg/ml Hygromycin B, 250 μg/ml Geneticin (G418). Jurkat-PD-1-NFAT effector cells (Promega) were cultured in RPMI 1640 medium supplemented with 10% FBS, 100 μg/ml Hygromycin B, 500 μg/ml G418. The culture media of PD-L1 aAPC/CHO-K1 cells were first replaced with assay medium (RPMI1640 medium with 1% FBS). The PD-L1 aAPC/CHO-K1 cells were then added in a white 384-well white clear bottom assay plate (CELLCOAT® Tissue Culture Plates, Greiner Bio-One) at 8000 per well in 10 μL assay medium. Test compounds were prepared by serial dilution in DMSO and 0.8 μL test compounds in DMSO were first transferred to the 384 REMP plate well (Thermofisher) by PlateMate Plus (Thermofisher) followed with addition of 50 μL plating medium. 5 μL compounds in the assay medium were transferred to the cells with 0.4% DMSO in the final assay at 2 μM. After removing the culture media, 10,000 Jurkat-PD-1-NFAT effector cells in 5 μL assay medium was dispensed into each well. The assay plate was incubated at 37° C., 5% CO2 for 24 hours. After the assay plate was equilibrated to room temp for 15 minutes, 20 µL/well of Bio-Glo™ reagent (Promega) were added. After 8 minutes incubation at room temperature, luminescence was read at with Pherastar microplate reader (BMG Labtech). The fold of induction (FOI) was calculated based on the ratio of luminescence normalized to the DMSO wells within each assay plate. The maximum percentage of induction was reported based on the ratio between the highest FOI of each compound and the maximum FOI of control compound within each assay plate. Wells with DMSO were served as the negative controls and wells containing control compound with the highest FOI were used as positive controls. EC50 determination was performed by fitting the curve of percent control activity versus the log of the compound concentration using the GraphPad Prism 6.0 software.

[2] = system: U2OS/PD-L1 cells and Jurkat-PD-1-SHP cells; assay: Src homology region 2 domain-containing phosphatase (SHP) assay; type: cell-based; details: Homo sapiens; U2OS/PD-L1 cells with Jurkat-PD-1-SHP cells, 2 hours
Method: Example B. Src Homology Region 2 Domain-Containing Phosphatase (SHP) Assay
U2OS/PD-L1 cells (DiscoveRx Corporation) were maintained in McCoy's 5A medium with addition of 10% FBS, 0.25 μg/ml Puromycin. After removing the culture media, the cell medium was replaced with assay medium (RPMI1640 medium with 1% FBS). The U2OS/PD-L1 cells were then added in 384-well black clear bottom assay plate (CELLCOAT® Tissue Culture Plates, Greiner Bio-One) at 5000 cells per well in 20 μL assay medium. Test compounds were prepared by serial dilution in DMSO and 125 nL compound were first transferred to the 384 REMP plate well (Thermofisher) by ECHO liquid handler (Labcyte) followed with addition of 27.5 μL assay medium. 5 μL/well compounds in the assay medium were transferred to the cell plate with 0.05% DMSO in the final assay at 0.5 μM. Jurkat-PD-1-SHP cells (DiscoveRx Corporation) were cultured in RPMI1640 medium supplemented with 10% FBS, 250 μg/ml Hygromycin B, 500 μg/ml G418. After the replacement of culture media with assay medium, 5,000 Jurkat-PD-1-SHP cells in 20 μL were dispensed into each well. The assay plate was incubated at 37° C., 5% CO2 for 2 hours before 2.5 μL PathHunter reagent 1 (DiscoveRx Corporation) were added to each well. The assay plate was shaken for 1 min at 350 rpm in the dark followed with addition of 10 μL PathHunter reagent 2 (DiscoveRx Corporation). Chemiluminescent signal was recorded with TopCount reader (Perkin Elmer) after incubation at room temperature for 1 hour. Wells with DMSO were served as the positive controls and wells containing no cells were used as negative controls. IC50 determination was performed by fitting the curve of percentage of control activity versus the log of the compound concentration using the GraphPad Prism 6.0 software.

PD-L1, sequence (Q9NZQ7 19-290): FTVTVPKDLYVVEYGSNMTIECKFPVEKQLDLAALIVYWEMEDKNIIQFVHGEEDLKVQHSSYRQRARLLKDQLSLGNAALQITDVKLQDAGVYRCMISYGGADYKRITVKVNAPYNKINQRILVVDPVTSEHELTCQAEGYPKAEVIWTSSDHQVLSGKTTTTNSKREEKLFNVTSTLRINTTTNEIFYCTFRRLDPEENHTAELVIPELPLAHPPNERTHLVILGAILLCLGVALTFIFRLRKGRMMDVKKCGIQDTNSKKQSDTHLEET

Row | SMILES | IC50 (PD-L1) | IC50 (PD-1/PD-L1) | IC50 [2] | EC50 [1]
1 | Cc1c(Nc2nc(C(F)(F)F)nc3cc(CN4CC[C@@H](O)C4)cnc23)cccc1-c1cccc(-c2nc3cc(CN4CC[C@@](C)(C(=O)O)C4)cc(C#N)c3o2)c1C [Example 21, (R)-1-((7-cyano-2-(3′-(7-(((R)-3-hydroxypyrrolidin-1-yl)methyl)-2-(trifluoromethyl)pyrido[3,2-d]pyrimidin-4-ylamino)-2,2′-dimethylbiphenyl-3-yl)benzo[d]oxazol-5-yl)methyl)-3-methylpyrrolidine-3-carboxylic Acid] | 0.01 to 0.1 µM | – | ≤ 0.01 µM | 0.01 to 0.1 µM
2 | Cc1c(Nc2nc(C(F)F)nc3cc(CN4CC[C@@H](O)C4)cnc23)cccc1-c1cccc(-c2nc3cc(CN4CCC(C)(C(=O)O)CC4)cc(C#N)c3o2)c1C [Example 24, (R)-1-((7-cyano-2-(3′-(2-(difluoromethyl)-7-((3-hydroxypyrrolidin-1-yl)methyl)pyrido[3,2-d]pyrimidin-4-ylamino)-2,2′-dimethylbiphenyl-3-yl)benzo[d]oxazol-5-yl)methyl)-4-methylpiperidine-4-carboxylic Acid] | 0.01 to 0.1 µM | ≤ 0.01 µM | – | 0.01 to 0.1 µM
3 | Cc1c(Nc2nc(C(F)F)nc3cc(CN4CC[C@@H](O)C4)cnc23)cccc1-c1cccc(-c2nc3cc(CN4CC[C@](C)(C(=O)O)C4)cc(C#N)c3o2)c1C [Example 23, (S)-1-((7-cyano-2-(3′-(2-(difluoromethyl)-7-(((R)-3-hydroxypyrrolidin-1-yl)methyl)pyrido[3,2-d]pyrimidin-4-ylamino)-2,2′-dimethylbiphenyl-3-yl)benzo[d]oxazol-5-yl)methyl)-3-methylpyrrolidine-3-carboxylic Acid] | 0.01 to 0.1 µM | ≤ 0.01 µM | – | ≤ 0.01 µM
4 | Cc1c(Nc2nc(C(F)F)cc3cc(CN4CC[C@@H](O)C4)cnc23)cccc1-c1cccc(-c2nc3cc(CN4CC[C@@](C)(C(=O)O)C4)cc(C#N)c3o2)c1C [Example 34, (R)-1-((7-cyano-2-(3′-(6-(difluoromethyl)-3-(((R)-3-hydroxypyrrolidin-1-yl)methyl)-1,7-naphthyridin-8-ylamino)-2,2′-dimethylbiphenyl-3-yl)benzo[d]oxazol-5-yl)methyl)-3-methylpyrrolidine-3-carboxylic Acid] | 0.1 to 0.5 µM | ≤ 0.01 µM | – | ≤ 0.01 µM

Continued, in another order:

Row | IC50 (PD-L1) | IC50 (PD-1/PD-L1) | IC50 [2] | SMILES | EC50 [1]
5 | 0.01 to 0.1 µM | ≤ 0.01 µM | – | Cc1c(Nc2nc(CO)nc3cc(CN4CC[C@@H](O)C4)cnc23)cccc1-c1cccc(-c2nc3cc(CN4CCC(C(=O)O)CC4)cc(C#N)c3o2)c1C [Example 32, (R)-1-((7-cyano-2-(3′-(2-(hydroxymethyl)-7-((3-hydroxypyrrolidin-1-yl)methyl)pyrido[3,2-d]pyrimidin-4-ylamino)-2,2′-dimethylbiphenyl-3-yl)benzo[d]oxazol-5-yl)methyl)piperidine-4-carboxylic Acid] | 0.01 to 0.1 µM
6 | 0.01 to 0.1 µM | ≤ 0.01 µM | – | Cc1c(Nc2nc(C(F)F)nc3cc(CN4CC[C@@H](O)C4)cnc23)cccc1-c1cccc(-c2nc3cc(CN4CC[C@H](C(=O)O)C4)cc(C#N)c3o2)c1C [Example 22, (S)-1-((7-cyano-2-(3′-(2-(difluoromethyl)-7-(((R)-3-hydroxypyrrolidin-1-yl)methyl)pyrido[3,2-d]pyrimidin-4-ylamino)-2,2′-dimethylbiphenyl-3-yl)benzo[d]oxazol-5-yl)methyl)pyrrolidine-3-carboxylic Acid] | 0.01 to 0.1 µM
7 | 0.01 to 0.1 µM | ≤ 0.01 µM | – | Cc1c(Nc2nc(C(F)F)nc3cc(CN4CC[C@@H](O)C4)cnc23)cccc1-c1cccc(-c2nc3cc(CN4CCC(C(=O)NCCC(=O)O)CC4)cc(C#N)c3o2)c1C [Example 27, (R)-3-(1-((7-cyano-2-(3′-(2-(difluoromethyl)-7-((3-hydroxypyrrolidin-1-yl)methyl)pyrido[3,2-d]pyrimidin-4-ylamino)-2,2′-dimethylbiphenyl-3-yl)benzo[d]oxazol-5-yl)methyl)piperidine-4-carboxamido)propanoic Acid] | 0.01 to 0.1 µM
8 | 0.01 to 0.1 µM | ≤ 0.01 µM | – | CNC(=O)C1CCN(Cc2cc(C#N)c3oc(-c4cccc(-c5cccc(Nc6nc(C(F)F)nc7cc(CN8CC[C@@H](O)C8)cnc67)c5C)c4C)nc3c2)CC1 [Example 26, (R)-1-((7-cyano-2-(3′-(2-(difluoromethyl)-7-((3-hydroxypyrrolidin-1-yl)methyl)pyrido[3,2-d]pyrimidin-4-ylamino)-2,2′-dimethylbiphenyl-3-yl)benzo[d]oxazol-5-yl)methyl)-N-methylpiperidine-4-carboxamide] | ≤ 0.01 µM
9 | 0.01 to 0.1 µM | ≤ 0.01 µM | – | Cc1c(Nc2nc(C(F)F)nc3cc(CN4CC[C@@H](O)C4)cnc23)cccc1-c1cccc(-c2nc3cc(CN4CCC(C(=O)N(C)C)CC4)cc(C#N)c3o2)c1C [Example 25, (R)-1-((7-cyano-2-(3′-(2-(difluoromethyl)-7-((3-hydroxypyrrolidin-1-yl)methyl)pyrido[3,2-d]pyrimidin-4-ylamino)-2,2′-dimethylbiphenyl-3-yl)benzo[d]oxazol-5-yl)methyl)-N,N-dimethylpiperidine-4-carboxamide] | 0.01 to 0.1 µM
